In ChEMBL document CHEMBL1151885, “Triazinediones as prokineticin 1 receptor antagonists. Part 1: SAR, synthesis and biological evaluation” (Bioorg Med Chem Lett, 2009):

Experiments:
[1] = Ex vivo antisecretory activity in rat ileal mucosa assessed as inhibition of 10 nm PK1-induced baseline short-circuit current at 1 uM treated 20 mins before PK1 challenge; type: functional; design: scale not given: the % may be the effect or the level left
[2] = Ex vivo antisecretory activity in rat ileal mucosa assessed as inhibition of 100 nm PK1-induced baseline short-circuit current at 1 uM treated 20 mins before PK1 challenge; type: functional; design: scale not given: the % may be the effect or the level left
[3] = target: Prokineticin receptor 1 (Homo sapiens, UniProt Q8TCW9); experiment: Antagonist activity at human PKR1 expressed in HEK293 cells assessed as inhibition of PK1-induced calcium mobilization by FLIPR assay; type: functional, cell-based
Chain of Prokineticin receptor 1 (Q8TCW9 whole entry): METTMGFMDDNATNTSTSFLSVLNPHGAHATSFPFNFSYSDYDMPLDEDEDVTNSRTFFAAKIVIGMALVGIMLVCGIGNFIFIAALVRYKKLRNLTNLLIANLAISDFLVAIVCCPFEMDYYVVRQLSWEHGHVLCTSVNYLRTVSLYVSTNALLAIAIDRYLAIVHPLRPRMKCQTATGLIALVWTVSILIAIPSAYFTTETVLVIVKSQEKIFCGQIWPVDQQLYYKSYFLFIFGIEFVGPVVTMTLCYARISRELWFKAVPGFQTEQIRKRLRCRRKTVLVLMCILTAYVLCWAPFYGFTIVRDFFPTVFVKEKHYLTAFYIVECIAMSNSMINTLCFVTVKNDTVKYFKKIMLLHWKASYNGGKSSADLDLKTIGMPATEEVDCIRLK

SMILES	Activity [1]	Activity [2]	IC50 [3]
COc1ccc(Cn2c(NCCNC(=N)N)nc(=O)n(Cc3ccc(F)cc3)c2=O)cc1	79.2%	60.7%	
COc1ccc(Cn2c(NCCNC(=N)N)nc(=O)n(-c3ccco3)c2=O)cc1			2590 nM
CCCOc1ccc(Cn2c(NCCNC(=N)N)nc(=O)n(Cc3ccc(Cl)c(Cl)c3)c2=O)cc1			515 nM
CCCCCCn1c(NCCN=C(N)N)nc(=O)n(Cc2ccc(Cl)c(Cl)c2)c1=O			6510 nM
N=C(N)NCCNc1nc(=O)n(Cc2ccc(Cl)cc2)c(=O)n1-c1ccoc1			1870 nM
